Read-outs that look alike come from different tables or passages of the source.

One data set has as its system IFV A/PR/8/34 (H1N1). Put plainly: microbe, parasite or virus in culture. The class given is cell-based. To be noted: Influenza A virus, MDCK, 120 h.
A further data set concerns IFV A/WSN/33 (H1N1). The data set can be described thus: microbe, parasite or virus in culture. The class given is cell-based. As to conditions: Influenza A virus, MDCK, 120 h.
The next data set concerns A/Weiss/43 (H1N1). The data set can be described thus: microbe, parasite or virus in culture. As to conditions: Influenza A virus, H1N1, MDCK, 120 h. The class given is cell-based.
Data set [1] relates to A/California/07/2009 (H1N1)pdm09. The data set can be described thus: microbe, parasite or virus in culture. To be noted: Influenza A virus, H1N1, MDCK, 120 h. In kind it is cell-based.
The subject of another data set is A/Hongkong/8/68 (H3N2). The data set can be described thus: microbe, parasite or virus in culture. The class given is cell-based. To be noted: Influenza A virus, H3N2, MDCK, 120 h.
The subject of a further data set is B/Florida/78/2015. The data set can be described thus: microbe, parasite or virus in culture. In kind it is cell-based. As to conditions: Influenza B virus, 120 h.
The next data set has as its system B/Lee/40. Put plainly: microbe, parasite or virus in culture. The class given is cell-based. To be noted: Influenza B virus, 120 h.
A further data set is described as follows: in vitro. As to conditions: dog.
Data set [2] addresses Influenza Virus CEN PAn enzyme (UniProt P03433). The class given is biochemical. To be noted: read-out: CEN IC50.
The next data set deals with influenza virus PR/8/34. Also on record: species or system Balb/c mice. As to conditions: in vivo.
The nature of another data set: Pharmacokinetics in Rats. The class given is in vivo. Details: AUClast: unit not given here. To be noted: PO 3 mg/kg, non-fasted male SD rats, plasma B-1. On the procedure:
C-1 was administered to 3 non-fasted male SD rats via oral gavage at 3 mg/kg.

The nature of data set [3]: Toxicity study, oral gavage once daily for 7 days. The class given is in vivo, Sprague Dawley (SD) rats. How it is done: A toxicity study of C-1 was conducted in Sprague Dawley (SD) rats. C-1 at 20, 100 and 500 mg/kg or vehicle (0.5% w/v CMC-Na and 0.1% v/v Tween-80 in DI water) was administered via oral gavage to Sprague Dawley rats (7-9 weeks, about 250-300 grams each for males and about 200-250 grams each for females) once daily for 7 days. 8 females and 8 males in each dose group were used.

The conditions of data set [4]: PO 10 mg/kg, male CD-1 mice, plasma B-1.
Experimental: B-1 was administered to male CD-1 mice (4-6 weeks old, 20-30 grams, 3 animals each group) via intravenous (IV) bolus at 1 mg/kg and by oral gavage (PO) at 10 mg/kg. […] All animals had free access to food and water prior to dosing. Blood samples (˜0.03 mL each time point) were collected via the jugular vein into tubes containing sodium heparin as the anticoagulant at 0.033, 0.083, 0.25, 0.5, 1, 2, 4, 8 and 24 hours post dose for IV administration and 0.083, 0.25, 0.5, 1, 2, 4, 8 and 24 hours post dose for PO administration. The blood samples were then centrifuged for 5 minutes in a centrifuge refrigerated at 4° C. The resultant plasma samples were analyzed using LC/MS/MS to determine concentrations of B-1. Non-compartmental model with WinNonlin (Phoenix™, version 8.0) software was used to calculate pharmacokinetic (PK) parameters.
For data set [5] the following is noted: for AUClast: PO 1 mg/kg, plasma B-1.
Experimental: B-1 was administered to male cynomolgus monkeys (2-5 years old, 2-5 kg, 3 animals each group) via intravenous (IV) bolus at 0.25 mg/kg and by oral gavage (PO) at 1 mg/kg; Animals in the IV group had free access to food and water (non-fasted) and animals in the PO group were fasted overnight prior to dosing (fasted). C-1 was administered to male cynomolgus monkeys (fasted or non-fasted, 3 each group) via oral gavage at 1 mg/kg. Blood samples (˜0.5 mL each time point) were collected via the jugular vein into tubes containing potassium ethylenediaminetetraacetic acid (K2EDTA) as the anticoagulant at 0.033, 0.083, 0.25, 0.5, 1, 2, 4, 8 and 24 hours post dose for IV administration and 0.083, 0.25, 0.5, 1, 2, 4, 8 and 24 hours post dose for PO administration. The blood samples were then centrifuged for 10 minutes in a centrifuge refrigerated at 2-8° C. The resultant plasma samples were analyzed using LC/MS/MS to determine concentrations of B-1. Non-compartmental model with WinNonlin (Phoenix™, version 6.1) software was used to calculate pharmacokinetic (PK) parameters.
The conditions of data set [6]: in vivo; cited from earlier work.
Data set [7] can be described thus: Liver microsomal stability. As to conditions: human, liver microsomes.
Data set [8] can be described thus: Liver microsomal stability. As to conditions: cynomolgus monkey, liver microsomes.
Data set [9] can be described thus: Liver microsomal stability. As to conditions: dog, liver microsomes.
A short description of data set [10]: Liver microsomal stability. To be noted: rat, liver microsomes.
Data set [11] can be described thus: Liver microsomal stability. To be noted: mouse, liver microsomes.
Setting [12] is: B/Florida/78/2015, MDCK cells, 5 days, read-out: EC50.
[13] abbreviates: B/Lee/40, MDCK cells, 5 days, read-out: EC50.

For `CCC(CC)O[C@@H]1C=C(C(=O)O)C[C@H](N)[C@H]1NC(C)=O` [Oseltamivir acid, reference compound], the EC50 was greater than 100000 nM in the data set with IFV A/PR/8/34 (H1N1); greater than 100000 nM in the data set on IFV A/WSN/33 (H1N1); 476 nM in the data set with A/Weiss/43 (H1N1); 231 nM in [1]; 20 nM in the data set on A/Hongkong/8/68 (H3N2); 8480 nM in the data set on B/Florida/78/2015 (setting [12]). Further, in the data set with B/Lee/40 (setting [13]), the EC50 was found to be 749 nM. The compound further showed a CC50 in “in vitro” greater than 100000 nM.

On to `CP(C)(=O)c1cn2c(c(O)c1=O)C(=O)N1CCOCC1N2C1c2ccccc2SCc2c1ccc(F)c2F` (single isomer, unassigned) [Compound E-1a, 12-(7,8-difluoro-6,11-dihydrodibenzo[b,e]thiepin-11-yl)-9-(dimethylphosphoryl)-7-hydroxy-3,4,12,12a-tetrahydro-1H-[1,4]oxazino[3,4-c]pyrido[2,1-f][1,2,4]triazine-6,8-dione], for which the half-inhibitory concentration (IC50) in data set [2] came out at 31 nM.

`COC(=O)OCOc1c2n(ccc1=O)N(C1c3ccccc3[Se]Cc3c1ccc(F)c3F)[C@@H]1COCCN1C2=O` (stereo partly drawn) [Compound C-1]: in [2], the IC50 came to 1550 nM. Also, the “antivirus efficacy in influenza virus PR/8/34 mouse model” value with influenza virus PR/8/34 is reported as “potent antivirus activity”. In addition, in the data set on influenza virus PR/8/34 (mouse, po), the “improvement in body weight loss” value was “significant dose-dependent improvement”. Also, the survival entry with influenza virus PR/8/34 (mouse, po) is “survived throughout the study”. Further, the body weight loss result with influenza virus PR/8/34 (mouse, po, 5 mg/kg) is given as “minimal”. Further, the AUClast amounted to 280 in “Pharmacokinetics in Rats”, 2834 in data set [4], 414 in data set [5] (fasted male cynomolgus monkeys) and 400 in data set [5] (non-fasted male cynomolgus monkeys). The MTD at 7 days in data set [3] (both sexes, Sprague Dawley, rat, in vivo, oral gavage once daily for 7 days, read-out: maximum tolerated dose (MTD)) was greater than 500 mg/kg/day. Moreover, the “toxic findings (clinical observation, body weight, food consumption, gross pathology)” value in data set [3] (in words, 20, 100 and 500 mg/kg oral gavage once daily for 7 days) was “No C-1-related toxic findings”. Further, the tolerability result in data set [3] (in words, oral gavage once daily for 7 days) was “well tolerated”. Moreover, the “food effect / impact of feeding condition on oral absorption” value in data set [5] (in words, cynomolgus monkeys, fasted vs non-fasted) was “did not impact oral absorption”.

Consider `O=C1c2c(O)c(=O)ccn2N(C2c3ccccc3[Se]Cc3c2ccc(F)c3F)C2COCCN12` (single isomer, unassigned) [Compound A-1-P1, 12-(7,8-Difluoro-6,11-Dihydrodibenzo[b,e]Selenepin-11-yl)-7-Hydroxy-3,4,12,12a-Tetrahydro-1H-[1,4]Oxazino[3,4-c]Pyrido[2,1-f][1,2,4]Triazine-6,8-Dione], for which, in [2], the IC50 came to 42 nM.

Take `CP(C)(=O)c1cn2c(c(O)c1=O)C(=O)N1CCOCC1N2C1c2ccccc2SCc2c1ccc(F)c2F` (single isomer, unassigned) [Compound E-1b, 12-(7,8-difluoro-6,11-dihydrodibenzo[b,e]thiepin-11-yl)-9-(dimethylphosphoryl)-7-hydroxy-3,4,12,12a-tetrahydro-1H-[1,4]oxazino[3,4-c]pyrido[2,1-f][1,2,4]triazine-6,8-dione]: the IC50 in data set [2] was found to be 32 nM.

Turning to `O=C1c2c(O)c(=O)ccn2N([C@@H]2c3ccccc3SCc3c2ccc(F)c3F)[C@@H]2COCCN12` [Baloxavir acid, reference compound], the IC50 in data set [2] stood at 14 nM. In addition, the concentration giving a half-maximal response (EC50) in the data set on IFV A/PR/8/34 (H1N1) stood at 0.73 nM; in the data set on IFV A/WSN/33 (H1N1), 0.44 nM; in [1], 0.66 nM; in the data set on A/Hongkong/8/68 (H3N2) it was 1.7 nM; with B/Florida/78/2015 (MDCK), 16 nM; with B/Lee/40 (MDCK), 6.3 nM. In addition, in the data set “in vitro”, the CC50 was 12000 nM. The oral availability result in data set [6] was “poor oral availability”.

For the compound `CP(C)(=O)c1cn2c(c(O)c1=O)C(=O)N1CCOC[C@H]1N2[C@@H]1c2ccccc2SCc2c1ccc(F)c2F` [Compound E-1c, (R)-12-((S)-7,8-difluoro-6,11-dihydrodibenzo[b,e]thiepin-11-yl)-9-(dimethylphosphoryl)-7-hydroxy-3,4,12,12a-tetrahydro-1H-[1,4]oxazino[3,4-c]pyrido[2,1-f][1,2,4]triazine-6,8-dione], the EC50 with IFV A/PR/8/34 (H1N1) is 68 nM; in the data set with IFV A/WSN/33 (H1N1), 58 nM; with A/Weiss/43 (H1N1) it was 133 nM; in data set [1] it was 129 nM; in the data set with A/Hongkong/8/68 (H3N2) it was 207 nM; in the data set with B/Florida/78/2015 (setting [12]), greater than 1000 nM. The EC50 in the data set on B/Lee/40 (setting [13]) was greater than 1000 nM. This compound also had a CC50 in the data set “in vitro” greater than 100000 nM.

As to `CCOC(=O)C1=C[C@@H](OC(CC)CC)[C@H](NC(C)=O)[C@@H](N)C1` [oseltamivir, reference compound], in the data set on influenza virus PR/8/34 (mouse, po), the “improvement in body weight loss” value was “did not result in substantial improvement” and the mice died was 60%.

Regarding `O=C1c2c(O)c(=O)ccn2N(C2c3ccccc3[Se]Cc3c2ccc(F)c3F)C2COCCN12` (single isomer, unassigned) [Compound A-1-P2, 12-(7,8-Difluoro-6,11-Dihydrodibenzo[b,e]Selenepin-11-yl)-7-Hydroxy-3,4,12,12a-Tetrahydro-1H-[1,4]Oxazino[3,4-c]Pyrido[2,1-f][1,2,4]Triazine-6,8-Dione], the IC50 in data set [2] is 25 nM. Further, the half-life was determined as 60.9 h in data set [7]; 1.42 h in [8]; 6.25 h in [9]; 2.88 h in data set [10]; 4.77 h in [11]. In addition, the microsomal CLint in [7] was determined as 2.2 µL/min/mg; in data set [8], 16 µL/min/mg; in [9], 4.5 µL/min/mg; in [10] it was 8.3 µL/min/mg; in data set [11] it was 5.2 µL/min/mg.

As for `COC(=O)OCOc1c2n(ccc1=O)N([C@@H]1c3ccccc3SCc3c1ccc(F)c3F)[C@@H]1COCCN1C2=O` [baloxavir marboxil], in [6], the oral availability result is “poor oral availability”.

For the compound `CCP(=O)(CC)c1cn2c(c(O)c1=O)C(=O)N1CCOC[C@H]1N2[C@@H]1c2ccccc2SCc2c1ccc(F)c2F` [Compound F-1, (R)-9-(Diethylphosphoryl)-12-((S)-7,8-Difluoro-6,11-Dihydrodibenzo[b,e]-Thiepin-11-yl)-7-Hydroxy-3,4,12,12a-Tetrahydro-1H-[1,4]Oxazino[3,4-c]Pyrido[2,1-f][1,2,4]Triazine-6,8-Dione], the EC50 in the data set on IFV A/PR/8/34 (H1N1) was greater than 100 nM; in the data set with IFV A/WSN/33 (H1N1), 57 nM; in the data set with A/Weiss/43 (H1N1) it was 22 nM; in data set [1] it was 125 nM; in the data set on A/Hongkong/8/68 (H3N2) it was 310 nM; in the data set with B/Florida/78/2015 (setting [12]) it was greater than 1000 nM. Besides, the EC50 with B/Lee/40 (setting [13]) is greater than 1000 nM. The CC50 in the data set “in vitro” was greater than 100000 nM.

These data come from patent US11466029B2, “Compounds useful to treat influenza virus infections” (Nanjing Zhengxiang Pharmaceuticals Co., Ltd., priority 2019, dated 2022).
